Values quoted from earlier work, collected in patent US7691842B2, “Tricyclic 6-alkylidene-penems as β-lactamase inhibitors” (Wyeth LLC, priority 2002, dated 2010).

How the values were obtained:
[1] = tested on: class-A producing pathogens; details: background statement; cited from earlier work
[2] = tested on: class C producing organisms; details: background statement; cited from earlier work

Structure (SMILES)	effectiveness against class-A producing pathogens [1]	effectiveness against class C producing organisms [2]
CC1(C)[C@H](C(=O)O)N2C(=O)C[C@H]2S1(=O)=O [sulbactam]	effective	ineffective
O=C(O)[C@H]1/C(=C/CO)O[C@@H]2CC(=O)N21 [clavulanic acid]	effective	ineffective
